Measurements: patent US5281580A, “Calcitonin-containing emulsion for nasal administration” (Toyo Jozo Company, Ltd., priority 1990, dated 1994)

Key:
Format in all cases: physicochemical
[1] = Stabilities of emulsions relating to added concentration of the azacycloalkane derivative (Example 2); conditions: for Observation after 3 days standing / Observation after 7 days standing: room temperature
Method: Each 5 ml of a 1% (W/V) solution preliminarily prepared by dissolving dispotassium glycyrrhizate in distilled water was poured in each of 8 10-ml-test tubes, and thereto was added 1[2-(decylthio)ethyl] azacyclopentan-2-one chosen from the azacycloalkane derivatives so as to make a concentration ranging from 0 to 10%. Then, the mixture was agitated for 1 minute using Biomixer (NIHON SEIKI SEISAKUSHO) (15,000 rpm), to prepare each emulsion. The state of dispersion just after the preparation,or after 3 days or 7 days standing at room temperature was observed.

[2] = Emulsifiability and stability of emulsions: state of dispersion observed (Example 1); conditions: for Just after preparation (state of dispersion): 0.1 g azacycloalkane derivative + 5.0 ml; for After 3 days standing (state of dispersion): room temperature
Method: Using 1-[2-(decylthio)ethyl]azacyclopentan-2-one chosen from the azacycloalkane derivatives, and three emulsifying agents as follows, emulsifiabilities and stabilities of the emulsions were examined:
(§1) […] The mixture was agitated under 15,000 rpm for 1 minute by Biomixer (NIHON SEIKI SEISAKUSHO) to prepare each emulsion. The state of dispersion just after the preparation and after 3 days standing at room temperature was observed. The turbidity just after the preparation was measured by extinction at 650 nm, and used as the index of emulsifiability.

[3] = Turbidity just after preparation by extinction, index of emulsifiability (Example 1)
Method: as §1

[4] = concentration 1.0% in 1% (W/V) dipotassium glycyrrhizate
[5] = concentration 2.0% in 1% (W/V) dipotassium glycyrrhizate

Compound: CCCCCCCCCCSCCN1CCCC1=O [1-[2-(decylthio)ethyl]azacyclopentan-2-one]
- emulsification and stability (in words) ([1]; concentration 0.01% to 10%, using 1% dipotassium glycyrrhizate): exhibited good emulsification and gave a stable emulsion
- Observation just after preparation [1, 4]: White clear
- Observation after 3 days standing [1, 4]: White clear
- Observation after 7 days standing [1, 4]: White clear
- Observation just after preparation [1, 5]: White clear
- Observation after 3 days standing [1, 5]: White clear
- Observation after 7 days standing [1, 5]: White clear

Compound: CC1(C)[C@@H](O[C@H]2O[C@H](C(=O)[O-])[C@@H](O)[C@H](O)[C@H]2O[C@@H]2O[C@H](C(=O)[O-])[C@@H](O)[C@H](O)[C@H]2O)CC[C@]2(C)[C@H]3C(=O)C=C4[C@@H]5C[C@@](C)(C(=O)O)CC[C@]5(C)CC[C@@]4(C)[C@]3(C)CC[C@@H]12.[K+].[K+] [dipotassium glycyrrhizate]
- Just after preparation (state of dispersion) ([2]; emulsifying agent 0.5%): White clear
- After 3 days standing (state of dispersion) ([2]; emulsifying agent 0.5%): White clear
- Just after preparation (state of dispersion) ([2]; emulsifying agent 1.0%): White clear
- After 3 days standing (state of dispersion) ([2]; emulsifying agent 1.0%): White clear
- Just after preparation (state of dispersion) ([2]; emulsifying agent 2.0%): White clear
- After 3 days standing (state of dispersion) ([2]; emulsifying agent 2.0%): White clear
- Just after preparation (state of dispersion) ([2]; emulsifying agent 3.0%): White clear
- After 3 days standing (state of dispersion) ([2]; emulsifying agent 3.0%): White clear
- emulsification (in words) ([2]; emulsifying agent at 0.1-5%): good emulsification
- dissolution (in words) ([2]; emulsifying agent at 4-5%): full dissolution
- Turbidity (650 nm) ([3]; emulsifying agent 0.1%): 1.284
- Turbidity (650 nm) ([3]; emulsifying agent 0.5%): 0.459
- Turbidity (650 nm) ([3]; emulsifying agent 1.0%): 0.437
- Turbidity (650 nm) ([3]; emulsifying agent 2.0%): 0.405
- Turbidity (650 nm) ([3]; emulsifying agent 3.0%): 0.346
- Turbidity (650 nm) ([3]; emulsifying agent 4.0%): 0.006
- Turbidity (650 nm) ([3]; emulsifying agent 5.0%): 0.006
